In US20070041904A1, “Peptides whose uptake by cells is controllable” (priority 2003, published 2007):

Key:
[1] = tested on: human squamous cell carcinoma specimens; test: Staining of freshly resected squamous cell carcinoma slices
Description: Squamous Cell Carcinoma Specimens. Human squamous cell carcinoma specimens from planned resections of neoplasms were collected postoperatively according to a protocol with institutional review board approval. The specimens were in ice-cold normal saline for 30 min during transport back to the laboratory, where they were cut by hand to ≈1-mm-thick slices, added to 1 ml of 1 μM peptide for 15 min at room temperature, rinsed five times for 2 min in 1 ml of HBSS, cryosectioned, and imaged as described above.
ACPPs Light Up Human Squamous Cell Carcinomas. Although human tumor cell lines xenografted into immunodeficient mice are popular cancer models, they fail to mimic many aspects of real human tumors. […] Contrast, defined as (tumor tissue fluorescence−autofluorescence)/(normal tissue fluorescence−autofluorescence), was almost eight in this example. […]
Images from tumor tissue treated with cleavable peptide are much clearer than are images from similar tumor tissue treated with “scrambled” uncleavable peptides and are much clearer than images from normal tongue tissue treated with cleavable peptide. […] Sections were taken for fluorescence microscopy using a low-power objective, and tissue type was verified by staining tissue. […]

[2] = tested on: HT1080 xenografts and mouse tissues; test: Biodistribution of radiolabeled ACPPs in mice with HT1080 xenografts; format: in vivo, nude mice
Description: FIG. 50: Biodistribution of ^99mTc-labeled albumin-ACPP. Mice xenografted as in FIG. 49 were sacrificed at 6, 24, and 48 hr after injection, organs were dissected, weighed, and radioactivity counted within 2 hrs to obtain % injected dose (% ID)/g tissue as shown in the bar graph (means±s.d., n=4 per time point). The inset table gives the corresponding mean standardized uptake values (SUV) defined as animal weight×(% ID/g tissue).
Serial scans were performed using the Biospace small animal planar scintigraphic imager. The % ID/g (% injected dose retained per gram of tissue) was measured by scintillation counting of tissues harvested post-mortem. The inventors have tested the above ACPPs and three other ^99mTc-labeled ACPPs: (70 KDa-dextran)-e9-XPLGLAG-r9-[DPK-^99mTc(CO)3], (murine serum albumin)-e9-XPLGLAG-r9-[DPK-^99mTc(CO)3], and (PAMAM generation 5 dendrimer)-e9-XPLGLAX-r9-[DPK-^99mTc(CO)3]. […] The tumor margins, however, appear relatively well-defined at earlier time points (see FIG. 48).
Because the ratio of tumor to liver uptake was at variance with the results obtained with fluorescent and magnetic labels and because of the limited literature on the use of DPK, the inventors tested whether the DPK chelator could be responsible for the affinity for normal tissues. Thus, the inventors synthesized and tested (70 KDa dextran)-e9-XPLGLAX-r9-(DOTA-^111In).

MMP-9 = test: Fluorescence change upon enzymatic cleavage of self-quenching / FRET ACPPs; format: biochemical
From the text: (§1) Thus, such molecules may be administered in vivo, and are cleaved in vivo.
ACPPs with self-quenching fluorophores [Cy5-X-e6-XPLGLAG-r9-Xk(Cy5)] or FRET pairs [Cy7-X-e6-XPLGLAG-r9-Xk(Cy5)] were synthesized. […] The inventors have found these two substrates to be poorly soluble in physiological media, even though the inventors decreased the number of glutamate residues from nine to six so that the molecules would carry more net charge.

Enterokinase = test: Peptide cleavage by enterokinase monitored by HPLC; format: biochemical; details: 0.38 mM peptide stock, 1 U/μl enterokinase
Description: 10 μl 0.38 mM peptide dissolved in water stock solution was added to 10 μl 1 U/μl Enterokinase (Invitrogen, EKmax) and the cleavage progress was monitored by injecting 5 μl of the reaction mixture on HPLC monitored at 440 nm. The peptide was designed to be a substrate for enterokinase, with cleavage by enterokinase expected between the K and A residues. A High Performance Liquid Chromatography (HPLC) chromatogram of the peptide EDDDDKA-aca-R9-aca-C(Fl)-CONH2 (SEQ ID NO: 3) (before cleavage of linker portion between K and A) is illustrated in FIG. 6A. […] FIG. 6B illustrates the HPLC chromatogram of the peptide of FIG. 6A after cleavage by enterokinase. The new peak was collected and determined on a mass spectrometer. The determined mass corresponded (as expected) to cleavage between K and A in the sequence of EDDDDKA-aca-R9-aca-C(Fl)-CONH2. (SEQ ID NO: 3)
ACPP Cleavage by Enterokinase: 10 μl of a 0.38 mM peptide stock solution dissolved in water was mixed with 10 μl 1 U/μl enterokinase (Invitrogen) and incubated at 37° C. Enzymatic cleavage was monitored by injecting 5 μl of the reaction mixture on HPLC and observing either UVvis absorbance at 440 nm for fluorescein labeled or 650 nm for Cy5 labeled peptide. […] The new peaks were collected and their identities were determined by mass spectroscopy.

[3] = tested on: HT-1080 tumors and mouse tissues; test: Standardized uptake values in tissues after peptide injection; format: in vivo, mice; details: 1 hr after injection
Description: Xenografts in Mice. Nude mice (age, 4-6 weeks) were injected s.c. with ≈10^6 HT-1080 cells. Once the tumors had reached ≈5-7 mm in size (typically 1-2 weeks later), animals were anesthetized with 100 mg/kg ketamine and 5 mg/kg midazolam), weighed, and injected with ≈100 μl of 60 μM peptide through the tail vein. Animals were then imaged at various times by using a Nikon f/1.2 camera lens in front of a cooled charge-coupled device camera (SenSys, Photometrics, Tucson, Ariz.). For longer lasting imaging studies, animals were allowed to wake up after 2 h of anesthesia and were reanesthetized at ≈4 and 6 hr for further data collection. Plasma half-lives were determined by the decrease in fluorescence intensity of ≈5-μl blood samples withdrawn periodically into heparinized capillaries. After imaging was ended, animals were killed with halothane, and organs of interest were harvested and weighed. For frozen sectioning, tissues were added to OCT cryopreservative and frozen on dry ice and hexane. […] Cy5 fluorescence was imaged as described above. […] Two sets of standards (liver and kidney) were used to calibrate fluorescence intensity in terms of peptide concentration. From this calibration, the quantity of peptide in 30 mg of tissue for each organ was calculated. SUVs were calculated as the molality of peptide in the tissue divided by the total injected dose as mol/kg of body weight. […]

[4] = tested on: tumor, kidney and liver of xenografted mice; test: Cyclic ACPP tested in xenografted mice; format: in vivo
Description: as §1
To generate cyclic peptides, the inventors synthesized cyclic[succinoyl-PLGLAG-c(11 KDa-mPEG)-e9-XPLGLAG-r9-K]-k(Cy5), which contains two cleavage sites. This cyclic ACCP was tested in xenografted mice. […] Thus, the cyclic substrate requiring two cleavages should favor the liver to an even greater extent. One of skill in the art would recognize that once peptide sequences (preferably two distinct ones) were obtained that individually are preferentially cleaved in the tumor over the liver, then the two-cut ACPPs would become advantageous for the practice of this invention.

Substance: (5 kDa PEG)-eeeeeeeeeXPLGLAG-rrrrrrrrrXk(Cy5) [cleavable peptide]
- contrast, relatively differentiated oral cavity_oropharynx tumors ([1]; mean±SD, two patients): 2.7±0.2
- contrast, high-grade laryngeal tumors ([1]; two tumors): 6.5±3.4

Substance: (murine serum albumin)-e9-XPLGLAG-r9-[DPK-^99mTc(CO)3]
- tumor uptake ([2]; HT1080 xenograft): 1-3 % ID/g
- liver uptake ([2]; mouse, in vivo): 12-18 % ID/g

Substance: Cy5-X-e6-XPLGLAG-r9-Xk(Cy5)
- increase of fluorescence intensity upon cleavage by MMP-9 (MMP-9): 3.9 fold

Substance: Cy7-X-e6-XPLGLAG-r9-Xk(Cy5)
- increase in ratio of 650 to 770 nm emissions upon cleavage (MMP-9; FRET substrate): 6.6 -fold

Substance: EDDDDKA-aca-R9-aca-C(Fl)-CONH2 (EDDDDKAXRRRRRRRRRXX; aminocaproic linkers, fluorescein, C-terminal amide; Description of Artificial Sequence:peptide designed to be substrate for enterokinase; Xaa = aminohexanoic acid (aminocaproic acid); Xaa = cysteinamide modified by fluorescein (Fl))
- time to almost complete cleavage by enterokinase (Enterokinase): 15 min

Substance: [11-kDa PEG]-X-e9-XPLG*LAG-r9-Xk(Cy5)
- tumor SUV ratio cleavable vs control [3]: 3.1

Substance: cyclic[succinoyl-PLGLAG-c(11 KDa-mPEG)-e9-XPLGLAG-r9-K]-k(Cy5)
- decrease of tumor signal vs linear peptide ([4]; compared to linear peptide with single cleavage site): 2 factor
- increase of liver signal vs linear peptide ([4]; mouse, in vivo): ~10 factor
